Entries after “also recorded” stand apart in the source; their conditions may differ.
Key:
cathepsin B [1] = molecular target: T1, cathepsin B (Homo sapiens, UniProt P07858); test: Chemiluminescence kinetic profile of probes with or without cathepsin B in activity buffer; type: biochemical; settings: probe 1 μM, activity buffer pH 7.4, 10% DMSO, 2.5 units/mL cathepsin B, room temperature
Experimental: FIGS. 1A-1C show the chemiluminescence kinetic profiles of probes 1, 2, 3 and 4 [1 μM] in activity buffer (pH 7.4, 10% DMSO) in the presence of 2.5 units/mL cathepsin B at room temperature (1A; the inset focuses on the kinetic profile of probe 1); the total light emitted from each probe (1B); and the maximal signal yielded by each probe (1C).
(§1) The activity buffer contained: phosphate buffer 0.1M, 55 mM NaCl, 1 mM EDTA, 5 mM glutathione. All spectroscopic measurements were conducted in triplicates. The blank measurements for limit of detection calculation were repeated ten times. Limit of detection (LOD) was calculated as such: LOD=Meanblank+3×SD wherein SD—standard deviation.
Next, chemiluminescence emission of the probes, as a function of time was measured, with or without the addition of cathepsin B. The kinetic profiles of the chemiluminescence signals and their relative total-photon emissions are shown in FIGS. 1A and 1B, respectively. […] From then on, a pattern of increased chemiluminescent signal is seen, correlating to the addendum change and the improved probe solubility in aqueous media. Evaluating the probes for forthcoming cell imaging required us to also assess the maximal signal yielded by each probe, as it will culminate in higher sensitivity and resolution (FIG. 1C). The maximal signal of the different probes pales in comparison to that of probe 4, making it the leading choice for further investigation. No light emission was observed from the probes in the absence of cathepsin B.

CT26 tumor cells = test: Chemiluminescence microscopy imaging of cathepsin B activity in CT26 tumor cells; type: cell-based; settings: probe 5 μM, LV200 microscope, 20 min exposure
Experimental: (§2) Images were obtained following 30 min incubation with cell culture medium containing either probe 3 or probe 4 (5 μM), and were taken using the LV200 Olympus microscope using a 60× objective and 20 min exposure time. Chemiluminescence microscopy image and transmitted light image of […] cells incubated with probe 3 (a and b, respectively); Chemiluminescence microscopy image and transmitted light image of […] cells incubated with probe 4 (c and d, respectively); Chemiluminescence microscopy image and transmitted light image of CT26 cells incubated with probe 3 (e and f, respectively); Chemiluminescence microscopy image and transmitted light image of CT26 cells incubated with probe 4 (g and h, respectively); Chemiluminescence microscopy image and transmitted light image of 3T3 cells incubated with probe 3 (i and j, respectively); Chemiluminescence microscopy image and transmitted light image of 3T3 cells incubated with probe 4 (k and l, respectively).
(§3) Chemiluminescence images were acquired using Olympus LV200 inverted microscope fitted with an EMCCD camera (Hamamatsu C9100-13). […] For visualization of chemiluminescence emission, images were recorded with 20 minutes exposure times. […]

3T3 normal cells = test: Chemiluminescence microscopy imaging of cathepsin B activity in 3T3 normal cells; type: cell-based, mouse; settings: 3T3 cells, probe 5 μM, LV200 microscope, 20 min exposure
Experimental: as §2, §3

Raw 264.7 cells = test: Chemiluminescence microscopy imaging of cathepsin B activity in Raw 264.7 cells; type: cell-based, murine; settings: probe 5 μM, LV200 microscope, 20 min exposure
Experimental: as §2, §3

cathepsin B [2] = molecular target: T1, cathepsin B; test: Sensitivity (limit of detection) of probes to detect cathepsin B, signal/noise vs enzyme concentration; type: biochemical; settings: for limit of detection (LOD) of cathepsin B: LOD = mean blank + 3×SD
Experimental: as §1
The sensitivity of probe 4 to detect cathepsin B was measured and compared to that of a classic fluorescent probe (Z-Val-Cit-PABA-7HC) based on 7-hydroxy-coumarin To directly view the comparison between the two detection methods, signal/noise ratio using different cathepsin B concentrations was plotted against enzyme concentration using logarithmic scales (FIG. 4).

cathepsin B [3] = molecular target: T1, cathepsin B; test: HPLC analysis of the enzymatic degradation of the probe by cathepsin B; type: biochemical; settings: probe 10 μM, activity buffer pH 7.4, 10% DMSO, 2.5 U/mL cathepsin B
From the text: To confirm the connection between the enzymatic degradation and chemiluminescent signal of the probes, HPLC was used to follow the enzymatic degradation of probe 4.

Structure (SMILES) | chemiluminescence emission (signal) upon addition of cathepsin B (cathepsin B [1]) | chemiluminescence signal in cell imaging (CT26 tumor cells) | chemiluminescence signal in cell imaging (3T3 normal cells) | chemiluminescence signal in cell imaging (Raw 264.7 cells) | limit of detection (LOD) of cathepsin B (cathepsin B [2]; chemiluminescence) | superior sensitivity vs. fluorescent probe Z-Val-Cit-PABA-7HC (cathepsin B [2]; ratio of LOD values) | enzymatic degradation followed by HPLC (cathepsin B [3]) | limit of detection (LOD) of cathepsin B (cathepsin B [2]; fluorescence)
COC1(c2cccc(OCc3ccc(NC(=O)C(CCCNC(N)=O)NC(=O)C(NC(=O)OCc4ccccc4)C(C)C)cc3)c2Cl)OOC12C1CC3CC(C1)CC2C3 (centres unmarked) [Probe 1] | extremely weak emission |  |  |  |  |  |  | 
COCCOCCOCCOCCOCCOCCOCCOCCOCCOCCOCCOCCOCCOCCOCCOCCOCCOC(=O)NC(C(=O)NC(CCCNC(N)=O)C(=O)Nc1ccc(COc2c(/C=C/C(=O)OC)ccc(C3(OC)OOC34C3CC5CC(C3)CC4C5)c2Cl)cc1)C(C)C (centres unmarked) [Probe 3] | distinct increase in the chemiluminescent signal; also recorded: highest light emission | no chemiluminescence signal | no chemiluminescence signal | no chemiluminescence signal |  |  |  | 
COC(=O)/C=C/c1ccc(C2(OC)OOC23C2CC4CC(C2)CC3C4)c(Cl)c1OCc1ccc(NC(=O)C(CCCNC(N)=O)NC(=O)C(NC(=O)CCCCCN2C(=O)CC(SC[C@@H](N)C(=O)NCC(=O)N[C@H](CCCCN)C(=O)N[C@H](CCCNC(=N)N)C(=O)N[C@H](CCCCN)C(=O)O)C2=O)C(C)C)cc1 (some centres unmarked) [Probe 4] | distinct increase in the chemiluminescent signal; also recorded: highest light emission | imaged via the chemiluminescence signal | no chemiluminescence signal was observed | imaged via the chemiluminescence signal | 76.29 μU/mL | more than 16,000 fold | rapid enzymatic disassembly | 
CC(C)C(NC(=O)OCc1ccccc1)C(=O)NC(CCCNC(N)=O)C(=O)Nc1ccc(COc2ccc3ccc(=O)oc3c2)cc1 (stereo not drawn) [Z-Val-Cit-PABA-7HC, reference compound] |  |  |  |  |  |  |  | 1.25 U/mL
COC(=O)/C=C/c1ccc(C2(OC)OOC23C2CC4CC(C2)CC3C4)c(Cl)c1OCc1ccc(NC(=O)C(CCCNC(N)=O)NC(=O)C(NC(=O)OCc2ccccc2)C(C)C)cc1 (centres unmarked) [Probe 2] | distinct increase in the chemiluminescent signal |  |  |  |  |  |  | 

Source: US12173350B2, “Chemiluminescent probes for imaging/detection of proteases” (RAMOT AT TEL-AVIV UNIVERSITY LTD., priority 2017, dated 2024)
